Assay results from article PMC7883042 (Peptide Science (Hoboken, N.j.), 2021).
Values joined by “and” are separate entries in the source; they are usually repeats but may differ in a detail not shown here. Identical values can stand only once. Bridge positions count the residues as written; N and C are the ends. Square brackets hold non-standard residues; d marks the D form. Peptide text beside a SMILES is read from it. R8 = C=CCCCCCC[C@@](C)(N)C(=O)O; S5 = C=CCCC[C@](C)(N)C(=O)O

test system: not listed separately; test: circular dichroism; conditions: PBS; pH 7.4; rt °C; 100 uM

First: CC(=O)N[C@H](C(=O)N[C@@]1(C)CCCC=CCCC[C@@](C)(C(=O)N[C@@H](CC(N)=O)C(=O)N[C@@H](Cc2c[nH]cn2)C(=O)N[C@@H](CCC(=O)O)C(=O)N[C@@H](C)C(=O)N[C@@H](CCC(=O)O)C(=O)N[C@@H](CC(=O)O)C(=O)N[C@@H](CC(C)C)C(N)=O)NC(=O)[C@H](CCCCN)NC(=O)[C@H](CC(=O)O)NC(=O)[C@H](CC(C)C)NC1=O)[C@@H](C)O
Second: CC(=O)N[C@@H](Cc1c[nH]cn1)C(=O)N[C@@H](CCC(=O)O)C(=O)N[C@@]1(C)CCCC=CCCC[C@@](C)(C(=O)N[C@@H](Cc2ccc(O)cc2)C(=O)N[C@@H](CCC(N)=O)C(=O)N[C@@H](CO)C(N)=O)NC(=O)[C@H](CC(C)C)NC(=O)[C@H](CC(=O)O)NC(=O)[C@H](CCC(=O)O)NC1=O (Ac-HE[S5]EDL[S5]YQS-NH2; staple 3-7)
The helicity of the first is lower: 21% for the first, 33.4% for the second.

First: CC[C@H](C)[C@H](NC(C)=O)C(=O)N[C@@H](CCC(=O)O)C(=O)N[C@@H](CCC(=O)O)C(=O)N[C@@H](CCC(N)=O)C(=O)N[C@]1(C)CCCCCC/C=C/CCC[C@@](C)(C(=O)N[C@@H](CC(N)=O)C(=O)N[C@@H](Cc2c[nH]cn2)C(=O)N[C@@H](CCC(=O)O)C(N)=O)NC(=O)[C@H](CCCCN)NC(=O)[C@H](CC(=O)O)NC(=O)[C@H](CC(C)C)NC(=O)[C@H](Cc2ccccc2)NC(=O)[C@H]([C@@H](C)O)NC(=O)[C@H](CCCCN)NC1=O (Ac-IEEQ[R8]KTFLDK[S5]NHE-NH2; staple (E) 5-12)
Second: CC(=O)N[C@H](C(=O)N[C@@H](Cc1ccccc1)C(=O)N[C@]1(C)CCCCCC/C=C/CCC[C@@](C)(C(=O)N[C@@H](CCC(=O)O)C(=O)N[C@@H](CC(=O)O)C(=O)N[C@@H](CC(C)C)C(N)=O)NC(=O)[C@H](CCC(=O)O)NC(=O)[C@H](Cc2c[nH]cn2)NC(=O)[C@H](CC(N)=O)NC(=O)[C@H](Cc2ccccc2)NC(=O)[C@H](CCCCN)NC(=O)[C@H](CC(=O)O)NC1=O)[C@@H](C)O (Ac-TF[R8]DKFNHE[S5]EDL-NH2; staple (E) 3-10)
The helicity of the first is lower: 12.2% for the first, 16.1% for the second.

First: Ac-HEAEDLFYQS-NH2
Second: Ac-IEEQAKTFLDKFNHE-NH2
The helicity of the first is lower: 5.9% for the first, 9.6% for the second.

With Ac-TFLDKFNHEAEDL-NH2 the helicity was 8.6%.

test system: not given; test: not given; type: physicochemical; conditions: pH 7.4

First: Ac-HEAEDLFYQS-NH2 [Peptide 9]
Second: Ac-IEEQAKTFLDKFNHE-NH2 [Peptide 11]
The “% Helicity” value of the first is lower: 5.9% for the first, 9.6% for the second.

Compared with “Ac-IEEQAKTFLDKFR8HEAEDLS5YQS-NH2 (sidechain bridge or staple) [Peptide 7]”, “Ac-IEEQAKTFLDKR8NHEAEDS5FYQS-NH2 (sidechain bridge or staple) [Peptide 6]” is lower in “% Helicity” value: 54.5% for the first, 23.5% for the second.

First: Ac-IEEQAKTFR8DKFNHES5EDLFYQS-NH2 (sidechain bridge or staple) [Peptide 5]
Second: Ac-IEEQAR8TFLDKFS5HEAEDLFYQS-NH2 (sidechain bridge or staple) [Peptide 4]
The “% Helicity” value of the first is lower: 31.3% for the first, 57.9% for the second.

Going from “Ac-IEEQR8KTFLDKS5NHE-NH2 (sidechain bridge or staple) [Peptide 12]” to “Ac-IEEQR8KTFLDKS5NHEAEDLFYQS-NH2 (sidechain bridge or staple) [Peptide 3]”, the “% Helicity” value rises from 12.2% to 55.6%.

Compared with “Ac-IR8EQAKTFS5LKFNHEAEDLFYQS-NH2 (sidechain bridge or staple) [Peptide 2]”, Ac-TFLDKFNHEAEDL-NH2 [Peptide 13] is lower in “% Helicity” value: 35.4% for the first, 8.6% for the second.

Going from “Ac-TFR8DKFNHES5EDL-NH2 (sidechain bridge or staple) [Peptide 14]” to “Ac-TS5LDKS5NHEAEDL-NH2 (sidechain bridge or staple) [Peptide 15]”, the “% Helicity” value rises from 16.1% to 21.0%.

In the case of “Ac-IEEQAKTFLDKFNHER8EDLFYQS5-NH2 (sidechain bridge or staple) [Peptide 8]”, the “% Helicity” value is reported as 72% and 72.2%.

test system: SARS‐CoV‐2 spike (Wuhan‐Hu‐1 strain) pseudovirus with HIV core, entry into 293 T ACE2 expressing cells; test: not given; type: cell-based; conditions: not given

In the case of “Ac-FHTSEYDEQNEIEAAQLFKDFLK-NH2 [Scrambled negative control]”, the “inhibition of viral entry” value is reported as “None of these compounds including stapled peptide 8 inhibited viral entry”.
For “Ac-IEEQAKTFLDKFNHER8EDLFYQS5-NH2 (sidechain bridge or staple) [Peptide 8]”, the “inhibition of viral entry” value was “None of these compounds including stapled peptide 8 inhibited viral entry”.
In the case of “IEEQAKR8FLDKFNS5EAEDLFYQS (sidechain bridge or staple) [Stapled negative control]”, the “inhibition of viral entry” value is reported as “None of these compounds including stapled peptide 8 inhibited viral entry”.
